For this experiment, the system named is T1, PurA.
T1 construct: ORF of 1,551 nt, pET24a(+), His-tagged, E. coli Rosetta2 (DE3), Ni-column; calculated 55,563 Da; monomer
The experiment in a line: peroxidase-coupled H2O2 assay (DAOS/4-aminoantipyrine). The experiment is classed as biochemical, Paenarthrobacter sp. No. 37. Particulars: oxygen as electron acceptor; Tris-HCl pH 8.0; 28°C; apparent steady-state constants.

As a reminder, the Km is the concentration of substrate that gives half-maximal velocity. On to `O=c1c(-c2ccc(O)cc2)coc2c([C@@H]3O[C@H](CO)[C@@H](O)[C@H](O)[C@H]3O)c(O)ccc12` [compound 1, puerarin], for which the Km stood at 43.4 ± 6.6 µM.
